Laboratory results: patent US9958451B2, “Near-infrared fluorescent dyes with large stokes shifts” (Portland State University, priority 2011, dated 2018)
Where “and” joins values, the source holds several entries; their conditions need not be identical. Equal entries are not always repeated. Marks after values point to notes of the source that are not given here.

Assays:
[1] = UV-visible absorbance spectroscopy, 15 μM in 90% aqueous, 10% DMSO; type: physicochemical; settings: 90% aqueous 10% DMSO
Description: Compounds 21 and 7 were characterized by UV-visible spectroscopy (FIG. 15). Absorbance was measured using 15 μM solutions of each compound in a solution that was 90% aqueous, 10% DMSO. The peaks at 600 nm (light dashed line) and 675 nm (light solid line) represent the dianions of compounds 21 and 7, respectively, in NaOH (pH 12). The peaks at 590 nm (heavy dashed line) and 650 nm (heavy solid line) represent a mix of mono- and dianions of compound 21 at pH 7.4 and predominantly monoanions of compound 7 at pH 9, respectively.
Compounds 22 and 8 were characterized by UV-visible spectroscopy (FIG. 16). Absorbance was measured using 15 μM solutions of each compound in a solution that was 90% aqueous, 10% DMSO. The peaks at 610 nm (light dashed line) and 685 nm (light solid line) represent the anions of compounds 22 and 8, respectively, in NaOH (pH 12). The peaks at 605 nm (heavy dashed line) and 805 nm (heavy solid line) represent the neutral forms of compounds 22 and 8 at pH 7.4, respectively.
Compounds 20a and 15a were characterized by UV-visible spectroscopy (FIG. 17). Absorbance was measured using 15 μM solutions of each compound in a solution that was 90% aqueous, 10% DMSO. The peaks at 545 nm (light dashed line) and 595 nm (light solid line) represent the respective anions, compounds 20c and 15h, in NaOH (pH 12).
Compound 15b (free amino) was characterized by UV-visible spectroscopy (FIG. 18), and compared to C.SNARF-5 (literature, SNARF=seminaphthorhodafluor). Absorbance was measured using a 15 μM solution of compound 15b in a solution that was 90% aqueous, 10% DMSO. The peak at 535 nm (heavy line) represents the predominantly phenolic form of 15b at pH 6. The peak at 615 nm (light line) represents the phenoxide of compound 15b at in NaOH (pH12). In comparison, C.SNARF-5 produces a peak at 550 nm (anionic form) and a peak at 485 nm (neutral form) (Whitaker et al., Anal. Biochem. 1991, 194, 330-344).
Absorbance was measured using 15 μM solutions of compound 15d in a solution that was 90% aqueous, 10% DMSO. The peak at 570 nm (heavy line) represents the predominantly neutral form of 15d at pH 6. The peak at 630 nm (light line) represents the phenoxide of compound 15d in NaOH (pH 12).
Compounds 20b and 15g were characterized by UV-visible spectroscopy (FIG. 20). Absorbance was measured using 15 μM solutions of each compound in a solution that was 90% aqueous, 10% DMSO. The peaks at 540 nm (dashed line) and 570 nm (solid line) represent the cations of compounds 20b and 15g, respectively, at pH 7.4.

[2] = Fluorescence emission spectra, 15 μM in 90% aqueous, 10% DMSO; type: physicochemical
Description: Compounds 21 and 7 also were characterized by their fluorescence emission spectra. Fluorescence was measured using 15 μM solutions of each compound in a solution that was 90% aqueous, 10% DMSO. For compound 21, the longest wavelength emission observed from the dianions occurred near 680 nm at pH 9. For compound 7 (transposed), the longest wavelength emission observed from the monoanion occurred near 800 nm at pH 9.
Compounds 22 and 8 also were characterized by their fluorescence emission spectra. Fluorescence was measured using 15 μM solutions of each compound in a solution that was 90% aqueous, 10% DMSO For compound 22, the longest wavelength emission observed from the anion occurred near 690 nm at pH 9. […] Given the greater than 800 nm absorbance peak and the typically large Stokes shifts observed in this class of compounds, it is likely that the emission was beyond the working range of the instrument (>850 nm).
Compounds 20 and 15a also were characterized by their fluorescence emission spectra. Fluorescence was measured using 15 μM solutions of each compound in a solution that was 90% aqueous, 10% DMSO. For compound 20a, the longest wavelength emission observed from its corresponding anion, compound 20c, occurred near 640 nm in NaOH (pH 12). For compound 15a (transposed), the longest wavelength emission observed from the corresponding anion, compound 15h, occurred near 760 nm in NaOH.
Compound 15b also was characterized by its fluorescence emission spectrum and compared to C.SNARF-5. Fluorescence was measured using a 15 μM solution of compound 15b in a solution that was 90% aqueous, 10% DMSO. For C.SNARF-5, the longest wavelength emission observed from the anion occurred near 632 nm (Whitaker et al., Anal. Biochem. 1991, 194, 330-344). For compound 15b (transposed), the longest wavelength emission observed from the phenoxide occurred near 770 nm.
Fluorescence was measured using a 15 μM solution of compound 15d in a solution that was 90% aqueous, 10% DMSO. […] For compound 15d (transposed), the longest wavelength emission observed from the phenoxide occurred near 780 nm (NaOH, pH 12).
Compounds 20b and 15g also were characterized by their fluorescence emission spectra. Fluorescence was measured using 15 μM solutions of each compound in a solution that was 90% aqueous, 10% DMSO. For compound 20b, the longest wavelength emission observed from the cation occurred near 640 nm at pH 7.4. For compound 15g (transposed), the longest wavelength emission observed from the cation occurred near 770 nm at pH 7.4.

[3] = Quantum yield in 10:90 DMSO:aqueous solutions; type: physicochemical; settings: aqueous solution
Description: The quantum yield of yellow-orange emitting 16a was 0.4649, 40 times greater than the corresponding neutral compound 15a. It was slightly higher than the yellow-green emitting neutral compound 20a, and >2 times higher than orange-red emitting anion 20c. The compounds (7.5 μM) were analyzed in 10:90 DMSO:aqueous solutions. Fluorescence emission was readily visible in a darkened room when the solutions were excited from below with 3-watt megaMAX 505 nm ALS system. The emission-enhancing properties afforded through the combination of the 3-1 transposition and methylation is in contrast to previously reported methyl ethers of seminaphthofluorescein compounds.

[4] = Spectral properties of rhodamine bis-boronic acids and precursors in DMSO:buffer; type: physicochemical; parameters: Brightness: scale not given here; settings: for Quenching of emission (PET) of the free boronic acid: DMSO buffer 1:9
Description: Characterization: The spectral properties of compounds 50-53 were determined. Absorption and fluorescence spectra of solutions of the rhodamine bis-boronic acids 51 and 53, and their respective precursors 50 and 52, are shown in FIGS. 27A-C (in DMSO:buffer 1:9) and 27D-F (DMSO:buffer 1:1). […] Excitation and emission spectra were normalized to their absorbance at the excitation wavelength, and are proportional to quantum yield.

[5] = Saccharide sensing, response to ribose; settings: DMSO:buffer 1:1, entire concentration range
Description: (§1) Solvents including MeCN, MeOH, EtOH, DMSO and buffer were initially screened for sugar sensing. […] DMSO mixtures were chosen for further studies.
(§2) The final pH 7.4 phosphate buffer concentration was 12.5 mM.

[6] = Saccharide sensing, response to fructose
Description: as §1, §2

[7] = DMSO:buffer 1:1, pH 7.4 phosphate buffer 12.5 mM
[8] = DMSO:buffer 1:9, pH 7.4 phosphate buffer 12.5 mM

Row | SMILES | Quenching of emission (PET) of the free boronic acid [4] | Brightness ([4]; DMSO:buffer 1:1) | Em ([4]; DMSO:buffer 1:1) [nm] | Ex ([4]; DMSO:buffer 1:1) [nm] | Q.Y. ([4]; DMSO:buffer 1:1) | ε ([4]; DMSO:buffer 1:1) [M⁻¹ cm⁻¹] | Abs [4, 7] [nm] | Brightness ([4]; DMSO:buffer 1:9) | Em ([4]; DMSO:buffer 1:9) [nm] | Ex ([4]; DMSO:buffer 1:9) [nm] | Q.Y. ([4]; DMSO:buffer 1:9) | ε ([4]; DMSO:buffer 1:9) [M⁻¹ cm⁻¹] | Abs [4, 8] [nm] | other results
1 | COC(=O)c1ccccc1-c1c2ccc(=O)cc-2oc2c1ccc1cccc(O)c12 [Compound 15h] | – | – | – | – | – | – | – | – | – | – | – | – | – | Red shift of absorption spectra from 3-1 transposition versus known regiochemistry ([1]; depending on the ionization state): 50 nm; Absorbance peak ([1]; NaOH (pH 12), anionic/phenoxide form): 595 nm and 599 nm; Enhancement of the Stokes shift by 3-1 transposition [2]: about 70 nm; Longest wavelength emission ([2]; NaOH (pH 12), anion/phenoxide): 760 nm; Quantum yield [3]: less than 1%
2 | O=C(O)c1ccccc1-c1c2ccc(=NCc3ccccc3B(O)O)cc-2oc2c1ccc1cc(NCc3ccccc3B(O)O)ccc12 [Compound 51, seminaphthorhodamine bis-boronic acid] | slightly quenched | 8037 | 643 | 580 | 0.35 | 23096 | 579 | 3032^e | 638 | 568 | 0.15 | 20326 | 560 | Increase in absorbance [5]: approximately 1.5 fold; Increase in fluorescence [5]: approximately 1.5 fold
3 | O=C(O)c1ccccc1-c1c2ccc3cc(NCc4ccccc4B(O)O)ccc3c2oc2c1ccc1cc(=NCc3ccccc3B(O)O)ccc12 [Compound 53, naphthorhodamine bis-boronic acid] | nearly completely quenched | 292^g | 700 | 624 | 0.18 | 1616 | 616 | 43^d,f | 692 | 612 | 0.004 | 10759 | 628 | Estimated quantum yield after binding ([6]; DMSO:buffer 1:9): 0.186; Increase in absorbance at 630 nm ([6]; DMSO:buffer 1:9, highest concentration of fructose): less than 3 fold
